This note sets out measurements from patent publication US20020156032A1, “Inhibition of DNA methyltransferase” (priority 1994, published 2002).

Structures are written as SMILES.

Assay [1] has as its system Y1 cells. As to the kind of experiment: Viability by trypan blue staining under serum deprivation. It counts as cell-based. The conditions noted are these: 0-10 μM for 72 h, then 1% horse serum five days without drug. The source says:
Factors present in the serum are essential for the survival of many nontumorigenic cells. […] For example, the oncogene bc1-2 is not a stimulator of cell proliferation but rather causes inhibition of apoptosis. […] It was reasoned that as factors in the serum are known to act as survival factors for cells, an apoptotic program could be activated only when these factors are remove. To test whether pZαM transfectants undergo programmed cell death under serum deprived condition, the effects of serum starvation on these transfectants was studied. pZαM transfectants and control Yl pZEM transfectants (3×10^5 per well) were plated in low serum medium (1% horse serum) in six well plates, harvested every 24 hours and tested for viability by trypan blue staining (FIG. 7B).
1×10^5 Y1 cells were plated in growth medium. Twenty-four hours after plating, the medium was replaced with fresh medium containing various concentrations (0-10 μM) of 5 azaCdR (Sigma). The medium was removed and replaced with fresh medium containing 5 azaCdR every 12 h for a period of 72 h. Following 5 azaCdR treatment the cells were plated onto a six well dish in growth medium (100, 300, 500 cells per well) for cologinecity determinations, in soft agar for determining anchorage independent growth (3×10^3 cells per well) and in low serum (1% horse serum) for five days to determine viability under serum deprived conditions. […]

The target of assay [2] is T1, DNA MeTase (Mus musculus, UniProt P13864).
T1 construct: endogenous in cells; host or cells: Y1 cells (parental, pZEM control transfectants and pZαM antisense transfectants)
As to the kind of experiment: Nearest neighbour analysis of methylated cytosines in CpG of total genomic DNA. Type of assay: cell-based, murine. The conditions noted are these: Y1 cells, 0-10 μM for 72 h. As to the method: To determine whether expression of antisense RNA to the DNA MeTase gene leads to a general reduction in the level of methylation of the genome, we resorted to “nearest neighbour” analysis using [α-32P]-dGTP as previously was performed. This assay enables the determination of the percentage of methylated cytosines residing in the dinucleotide sequence CpG (Razin et al., 1985, IN Biochemistry and Biology of DNA methylation, p. 239, Razin et al., (Ed), Allan R. Liss, Inc. N.Y.). […] Equal amounts of radioactivity were loaded on TLC phosphocellulose plates (Merck) and the 3′ mononucleotides were separated by chromatography in one dimension (iso-butyric acid: H2O:NH4OH in the ratio 66:33:1). The chromatograms were exposed to XAR™ film (Eastman-Kodak) and the spots corresponding to cytosine and 5-methylcytosine were scraped and counted in a β-scintillation counter.
Transfectants and control DNAs were nicked with DNAaseI, nick translated with a single nucleotide [α-32P]-dGTP using DNA polymerase I and the labelled DNA was digested to 3′ mononucleotide phosphates with micrococal nuclease which cleaves DNA 3′ to the introduced α-32p. The [α-32P] labelled 5′ neighbours of dGMP were separated by chromatography on a TLC plate, the resulting spots for dCMP and dC^metMp were scraped and counted by liquid scintillation. […]

In assay [3] the test system is Y1 cells. The experiment in a line: Anchorage independent growth in soft agar. Type of assay: cell-based. Conditions: 0-10 μM for 72 h, then soft agar without drug. As to the method:
Yl cells were maintained as monolayers in F-10 medium which was supplemented with 7.25% heat inactivated horse serum and 2.5% heat inactivated fetal calf serum (Immunocorp, Montreal). All other media and reagents for cell culture were obtained from GIBCO-BRL. Yl cells (1×10^6) were plated on a 150 mm dish (Nunc) 15 hours before transfection. The pZαM expression vector encoding the 5′ of the murine DNA MeTase cDNA (10 ug) was cointroduced into Yl cells with 1 ug of pUCSVneo as a selectable marker by DNA mediated gene transfer using the calcium phosphate protocol (Ausubel et al., 1988, In Current Protocols in Molecular Biology. Wiley and Sons, New York). Selection was initiated 48 hours after transfection by adding 0.25 mg/ml G418 (GIBCO-BRL) to the medium. G418 resistant cells were cloned in selective medium. […] Growth was scored as colonies containing >10 cells, 21 days after plating.
To determine whether the expression of antisense to the DNA MeTase results in reversal of the tumorigenic potential the ability of the transfectants to grow in an anchorage independent fashion, which is considered an indicator of tumorigenicity, was also determined. […] Growth on soft agar was quantified by visual examination and presented graphically in FIG. 4C. […]

T1 sequence (P13864 whole entry): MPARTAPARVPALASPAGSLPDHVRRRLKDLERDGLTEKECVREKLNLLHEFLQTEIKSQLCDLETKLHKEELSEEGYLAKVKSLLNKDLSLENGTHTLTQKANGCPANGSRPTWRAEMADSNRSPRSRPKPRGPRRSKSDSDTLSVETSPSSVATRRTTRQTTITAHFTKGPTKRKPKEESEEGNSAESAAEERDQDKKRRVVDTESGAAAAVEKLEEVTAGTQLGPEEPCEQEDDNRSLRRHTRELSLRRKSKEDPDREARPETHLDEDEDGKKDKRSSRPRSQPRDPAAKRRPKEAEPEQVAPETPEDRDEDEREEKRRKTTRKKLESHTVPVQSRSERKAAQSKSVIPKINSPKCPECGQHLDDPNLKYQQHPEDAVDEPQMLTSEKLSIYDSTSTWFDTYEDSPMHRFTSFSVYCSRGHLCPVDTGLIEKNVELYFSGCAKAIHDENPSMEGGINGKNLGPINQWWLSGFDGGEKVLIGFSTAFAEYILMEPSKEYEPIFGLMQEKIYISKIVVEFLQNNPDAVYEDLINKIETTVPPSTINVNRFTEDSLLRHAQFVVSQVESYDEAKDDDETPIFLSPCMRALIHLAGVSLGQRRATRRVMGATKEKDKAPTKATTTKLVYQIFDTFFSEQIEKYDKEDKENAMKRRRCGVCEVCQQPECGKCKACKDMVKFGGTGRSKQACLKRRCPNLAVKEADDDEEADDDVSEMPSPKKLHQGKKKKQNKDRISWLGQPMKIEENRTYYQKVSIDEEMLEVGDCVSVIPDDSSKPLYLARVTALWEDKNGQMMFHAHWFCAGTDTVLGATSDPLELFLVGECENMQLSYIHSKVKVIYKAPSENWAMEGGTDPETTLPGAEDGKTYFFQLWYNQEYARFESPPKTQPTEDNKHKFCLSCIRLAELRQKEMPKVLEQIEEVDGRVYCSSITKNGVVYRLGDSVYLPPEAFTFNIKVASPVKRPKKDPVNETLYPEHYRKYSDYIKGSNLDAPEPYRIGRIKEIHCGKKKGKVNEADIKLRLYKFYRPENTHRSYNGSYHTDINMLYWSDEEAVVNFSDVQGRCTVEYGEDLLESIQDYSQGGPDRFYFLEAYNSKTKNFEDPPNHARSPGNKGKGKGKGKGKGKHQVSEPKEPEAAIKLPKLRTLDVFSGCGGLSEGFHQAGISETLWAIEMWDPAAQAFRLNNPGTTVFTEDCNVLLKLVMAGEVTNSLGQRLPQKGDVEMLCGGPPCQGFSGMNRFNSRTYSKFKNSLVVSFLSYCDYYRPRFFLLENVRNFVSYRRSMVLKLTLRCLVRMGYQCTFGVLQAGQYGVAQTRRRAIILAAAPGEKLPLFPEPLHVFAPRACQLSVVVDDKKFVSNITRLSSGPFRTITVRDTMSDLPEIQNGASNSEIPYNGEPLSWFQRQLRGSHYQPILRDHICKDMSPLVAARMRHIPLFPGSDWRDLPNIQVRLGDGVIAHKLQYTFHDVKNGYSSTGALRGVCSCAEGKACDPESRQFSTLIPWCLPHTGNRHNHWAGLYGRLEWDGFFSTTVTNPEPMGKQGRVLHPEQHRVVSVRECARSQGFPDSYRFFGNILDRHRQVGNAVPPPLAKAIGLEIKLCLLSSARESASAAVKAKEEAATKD

For the compound `Nc1ncn([C@H]2C[C@H](O)[C@@H](CO)O2)c(=O)n1` [5 azaCdR], the “viability of serum-starved cells” value in assay [1] is reported as “decrease the viability of serum-starved cells”. For the same compound, the “level of non-methylated cytosine in CpG” value in assay [2] is listed as “increase the level of non-methylated cytosine”. The “growth on soft agar” value in assay [3] is “drastically inhibit the growth of Y1 cells on soft agar”.
